According to ChEMBL document CHEMBL4811290, “Exploiting the hydrophobic channel of the NNIBP: Discovery of novel diarylpyrimidines as HIV-1 NNRTIs against wild-type and K103N mutant viruses” (Bioorg Med Chem, 2021):
Calls of active or inactive are those of the source. The calls are words filed in the database; no cut-off is given here.

Legend:
[1] = tested on: Human immunodeficiency virus 1; experiment: Antiviral activity against wild type HIV-1 IIIB infected in human MT4 cells assessed as inhibition of virus-induced cytopathic effect measured after 5 days by MTT assay; format: functional, organism-based; details: Human immunodeficiency virus 1, IIIB, MT4, 120 h
[2] = tested on: Human immunodeficiency virus 1; experiment: Antiviral activity against HIV1 harboring RT Y181C mutant infected in human MT4 cells assessed as inhibition of virus-induced cytopathic effect incubated for 5 days by MTT assay; format: functional, organism-based; details: Human immunodeficiency virus 1, MT4, 120 h
[3] = tested on: MT4; experiment: Antiviral activity against wild type HIV-2 ROD infected in human MT4 cells assessed as inhibition of virus-induced cytopathic effect measured after 5 days by MTT assay; format: functional, cell-based; details: Human immunodeficiency virus 2, ISOLATE ROD, time 5.0 day
[4] = tested on: Human immunodeficiency virus 1; experiment: Antiviral activity against HIV1 harboring RT L100I mutant infected in human MT4 cells assessed as inhibition of virus-induced cytopathic effect incubated for 5 days by MTT assay; format: functional, organism-based; details: Human immunodeficiency virus 1, MT4, 120 h
[5] = Selectivity index, ratio of CC50 for human MT4 cells to EC50 for Antiviral activity against HIV-1 IIIB infected in human MT4 cells; format: toxicity, cell-based; details: read-out: Selectivity Index
[6] = tested on: Human immunodeficiency virus 1; experiment: Antiviral activity against HIV1 harboring RT Y188L mutant infected in human MT4 cells assessed as inhibition of virus-induced cytopathic effect incubated for 5 days by MTT assay; format: functional, organism-based; details: Human immunodeficiency virus 1, MT4, 120 h
[7] = tested on: Human immunodeficiency virus 1; experiment: Antiviral activity against HIV1 harboring RT RES056 mutant infected in human MT4 cells assessed as inhibition of virus-induced cytopathic effect incubated for 5 days by MTT assay; format: functional, organism-based; details: Human immunodeficiency virus 1, MT4, 120 h
[8] = tested on: Human immunodeficiency virus 1; experiment: Antiviral activity against HIV1 harboring RT F227L/V106A mutant infected in human MT4 cells assessed as inhibition of virus-induced cytopathic effect incubated for 5 days by MTT assay; format: functional, organism-based; details: Human immunodeficiency virus 1, MT4, 120 h
[9] = tested on: Human immunodeficiency virus 1; experiment: Antiviral activity against HIV1 harboring RT E138K mutant infected in human MT4 cells assessed as inhibition of virus-induced cytopathic effect incubated for 5 days by MTT assay; format: functional, organism-based; details: Human immunodeficiency virus 1, MT4, 120 h
[10] = Cytotoxicity against mock-infected human MT4 cells incubated for 5 days by MTT assay; format: cell-based; details: time 5 day
[11] = tested on: Human immunodeficiency virus 1; experiment: Antiviral activity against HIV1 harboring K103N mutant infected in human MT4 cells assessed as inhibition of virus-induced cytopathic effect incubated for 5 days by MTT assay; format: functional, organism-based; details: Human immunodeficiency virus 1, MT4, 120 h
[12] = Water solubility of compound at pH 2; format: physicochemical

Compound	EC50 [1] [nM]	EC50 [2] [µM]	Activity [3]	EC50 [4] [nM]	selectivity ratio [5]	EC50 [6] [nM]	EC50 [7] [µM]	EC50 [8] [µM]	EC50 [9] [nM]	CC50 at 120 h [10] [µM]	EC50 [11] [nM]	solubility [12] [µg/mL]
Cc1cc(C#CC=C2CCN(S(=O)(=O)N(C)C)CC2)cc(C)c1Oc1ccnc(Nc2ccc(C#N)cc2)n1	114	> 4.79	inactive	> 4790	42	> 4790	> 4.79	> 4.79	750	4.79	209	
Cc1cc(C#CC=C2CCN(C(=O)OC(C)(C)C)CC2)cc(C)c1Oc1ccnc(Nc2ccc(C#N)cc2)n1	643	> 56.7	inactive	984	26	5560	> 56.7	> 56.7	> 56700	16.7	> 56700	
Cc1cn([C@H]2C[C@H](N=[N+]=[N-])[C@@H](CO)O2)c(=O)[nH]c1=O [ZIDOVUDINE]	21	0.015	inactive	9	> 352	12	0.024	0.01	35	> 7.48	22	
Cc1cc(C#CC=C2CCN(Cc3cccc([N+](=O)[O-])c3)CC2)cc(C)c1Oc1ccnc(Nc2ccc(C#N)cc2)n1	187	5.55	inactive	2770	399	5330	> 74.6	26.7	2150	74.6	510	
C=CC(=O)N1CCC(=CC#Cc2cc(C)c(Oc3ccnc(Nc4ccc(C#N)cc4)n3)c(C)c2)CC1	35	1.1	inactive	345	116	409	> 4.1	> 4.1	240	4.1	46	
Cc1cc(C#CC=C2CCN(Cc3ccccn3)CC2)cc(C)c1Oc1ccnc(Nc2ccc(C#N)cc2)n1	74	4.25	inactive	> 5580	75	1030	> 5.58	> 5.58	805	5.58	200	
Cc1cc(C#N)cc(C)c1Oc1nc(Nc2ccc(C#N)cc2)nc(N)c1Br [ETRAVIRINE]		0.02	inactive	8		21	0.067	0.02	19	> 4.61		< 1
Cc1cc(C#CC=C2CCN(Cc3ccccc3C#N)CC2)cc(C)c1Oc1ccnc(Nc2ccc(C#N)cc2)n1	376	20.4	inactive	8540	> 604	16100	> 227	> 42.4	5460	> 227	1010	
Cc1cc(C#CC=C2CCN(S(=O)(=O)C(C)C)CC2)cc(C)c1Oc1ccnc(Nc2ccc(C#N)cc2)n1	171	> 4.58	inactive	> 4580	27	> 4580	> 4.58	> 4.58	918	4.58	573	
Cc1cc(C#CC=C2CCN(S(=O)(=O)C3CC3)CC2)cc(C)c1Oc1ccnc(Nc2ccc(C#N)cc2)n1	98	> 4.66	inactive	> 4660	47	1410	> 4.66	> 4.66	685	4.66	284	
CCS(=O)(=O)N1CCC(=CC#Cc2cc(C)c(Oc3ccnc(Nc4ccc(C#N)cc4)n3)c(C)c2)CC1	79	> 1.35	inactive	1080	62	1280	> 4.96	> 4.96	493	4.96	165	
Cc1ccnc2c1NC(=O)c1cccnc1N2C1CC1 [NEVIRAPINE]	160	10.5	inactive	2520	> 94	> 15000	> 15	> 15	258	> 15	6550	
O=C1Nc2ccc(Cl)cc2[C@@](C#CC2CC2)(C(F)(F)F)O1 [EFAVIRENZ]		0.006	inactive	37		212	0.332		7	> 6.35	103	
COC(=O)c1ccc(CN2CCC(=CC#Cc3cc(C)c(Oc4ccnc(Nc5ccc(C#N)cc5)n4)c(C)c3)CC2)cc1	656	> 33.6	inactive	> 33600	51	> 33600	> 33.6	> 33.6	5460	33.6	782	
Cc1cc(C#CC=C2CCN(C(=O)N(C)C)CC2)cc(C)c1Oc1ccnc(Nc2ccc(C#N)cc2)n1	35	0.799	inactive	617	125	521	> 4.43	> 4.43	265	4.43	86	
CCOC(=O)CN1CCC(=CC#Cc2cc(C)c(Oc3ccnc(Nc4ccc(C#N)cc4)n3)c(C)c2)CC1	7050	> 201	inactive	> 201000	29	> 201000	> 201	> 201	> 201000	201	39000	
Nc1ccn([C@H]2CS[C@@H](CO)O2)c(=O)n1	5230	3.4	inactive	1150	> 309	4560	5.06	2.17	8270	> 87.2	2790	
